Laboratory results published in US7022667B2, “O-derivatized nocathiacin derivatives” (Bristol-Myers Squibb Company, priority 2002, dated 2006).
≈ marks a conversion by molar mass, not a printed value.

Columns and labels:
Assay in all cases: MIC, broth micro dilution assay (NCCLS)
Assay type in all cases: cell-based
[1] = test system: Enterococcus faecalis A20688; details: Mueller-Hinton medium, 35° C., 18 hours
Description: (§1) The serial broth dilution method used Mueller-Hinton medium except for the Streptococcus pneumoniae which was tested in 50% Mueller-Hinton medium and 50% Todd Hewitt medium. The final bacterial inoculate contained approximately 5×10^5 cfu/well and was run on microtiter plates. The volume of each well was 100 μL and the plates were incubated at 35° C. for 18 hours in ambient air. The MIC was defined as the lowest drug concentration that prevented visible growth.

[2] = test system: Streptococcus pneumoniae A28272; details: 50% Mueller-Hinton medium and 50% Todd Hewitt medium, 35° C., 18 hours
Description: as §1

[3] = test system: Staphylococcus aureus A15090; details: Mueller-Hinton medium, 35° C., 18 hours
Description: as §1

Row | MIC (μg/mL) Enterococcus faecalis A20688 [1] | MIC (μg/mL) Streptococcus pneumoniae A28272 [2] | MIC (μg/mL) Staphylococcus aureus A15090 [3] | Compound
1 | 0.25 µg/mL (≈ 0.169 µM) | 0.007 µg/mL (≈ 0.00472 µM) | 0.25 µg/mL (≈ 0.169 µM) | C=C(NC(=O)c1csc(-c2nc3c(cc2O)-c2nc(cs2)C(=O)NC(C(C)O)C(=O)NC(=C(C)OC)c2nc(cs2)C(=O)NC2c4nc(cs4)C(=O)NC(COC(=O)c4c5c6c(cccc6n4OCCO)COC(=O)C(OC4CC(C)(O)C(N(C)C)C(C)O4)C2OC5)c2nc-3cs2)n1)C(N)=O (stereo not drawn) [Example 36]
2 | 1.0 µg/mL (≈ 0.669 µM) | 0.06 µg/mL (≈ 0.0401 µM) | 0.25 µg/mL (≈ 0.167 µM) | C=C(NC(=O)c1csc(-c2nc3c(cc2O)-c2nc(cs2)C(=O)NC(C(C)O)C(=O)NC(=C(C)OC)c2nc(cs2)C(=O)NC2c4nc(cs4)C(=O)NC(COC(=O)c4c5c6c(cccc6n4OCCCN)COC(=O)C(OC4CC(C)(O)C(N(C)C)C(C)O4)C2OC5)c2nc-3cs2)n1)C(N)=O (stereo not drawn) [Example 42]
3 | 0.25 µg/mL | 0.03 µg/mL | 0.125 µg/mL | C=C(NC(=O)c1csc(-c2nc3c(cc2O)-c2nc(cs2)C(=O)NC(C(C)O)C(=O)NC(=C(C)OC)c2nc(cs2)C(=O)NC2c4nc(cs4)C(=O)NC(COC(=O)c4c5c6c(cccc6n4OCCC(=O)[O-])COC(=O)C(OC4CC(C)(O)C(N(C)C)C(C)O4)C2OC5)c2nc-3cs2)n1)C(N)=O.[Na+] (stereo not drawn) [Example 44]
4 | 1.0 µg/mL (≈ 0.638 µM) | 0.03 µg/mL (≈ 0.0191 µM) | 2.0 µg/mL (≈ 1.28 µM) | C=C(NC(=O)c1csc(-c2nc3c(cc2O)-c2nc(cs2)C(=O)NC(C(C)O)C(=O)NC(=C(C)OC)c2nc(cs2)C(=O)NC2c4nc(cs4)C(=O)NC(COC(=O)c4c5c6c(cccc6n4OCOCC[Si](C)(C)C)COC(=O)C(OC4CC(C)(O)C(N(C)C)C(C)O4)C2OC5)c2nc-3cs2)n1)C(N)=O (stereo not drawn) [Example 45]
5 | 2 µg/mL (≈ 1.3 µM) | 0.03 µg/mL (≈ 0.0195 µM) | 1.0 µg/mL (≈ 0.651 µM) | C=C(NC(=O)c1csc(-c2nc3c(cc2O)-c2nc(cs2)C(=O)NC(C(C)O)C(=O)NC(=C(C)OC)c2nc(cs2)C(=O)NC2c4nc(cs4)C(=O)NC(COC(=O)c4c5c6c(cccc6n4OCCCNC(=N)N)COC(=O)C(OC4CC(C)(O)C(N(C)C)C(C)O4)C2OC5)c2nc-3cs2)n1)C(N)=O (stereo not drawn) [Example 48]
6 | 0.25 µg/mL (≈ 0.156 µM) | 0.007 µg/mL (≈ 0.00437 µM) | 0.5 µg/mL (≈ 0.312 µM) | C=C(NC(=O)c1csc(-c2nc3c(cc2O)-c2nc(cs2)C(=O)NC(C(C)O)C(=O)NC(=C(C)OC)c2nc(cs2)C(=O)NC2c4nc(cs4)C(=O)NC(COC(=O)c4c5c6c(cccc6n4OCCCNS(=O)(=O)N(C)C)COC(=O)C(OC4CC(C)(O)C(N(C)C)C(C)O4)C2OC5)c2nc-3cs2)n1)C(N)=O (stereo not drawn) [Example 49]
7 | 0.125 µg/mL (≈ 0.0806 µM) | 0.015 µg/mL (≈ 0.00967 µM) | 0.5 µg/mL (≈ 0.322 µM) | C=C(NC(=O)c1csc(-c2nc3c(cc2O)-c2nc(cs2)C(=O)NC(C(C)O)C(=O)NC(=C(C)OC)c2nc(cs2)C(=O)NC2c4nc(cs4)C(=O)NC(COC(=O)c4c5c6c(cccc6n4OCCCN(CC)CC)COC(=O)C(OC4CC(C)(O)C(N(C)C)C(C)O4)C2OC5)c2nc-3cs2)n1)C(N)=O (stereo not drawn) [Example 51]

The remaining lines, values behind:

Row | Compound | MIC (μg/mL) Enterococcus faecalis A20688 [1] | MIC (μg/mL) Streptococcus pneumoniae A28272 [2] | MIC (μg/mL) Staphylococcus aureus A15090 [3]
8 | C=C(NC(=O)c1csc(-c2nc3c(cc2OC(=O)c2ccc(Br)cc2)-c2nc(cs2)C(=O)NC(C(C)O)C(=O)NC(=C(C)OC)c2nc(cs2)C(=O)NC2c4nc(cs4)C(=O)NC(COC(=O)c4c5c6c(cccc6n4O)COC(=O)C(OC4CC(C)(O)C(N(C)C)C(C)O4)C2OC5)c2nc-3cs2)n1)C(N)=O (stereo not drawn) [Example 32] | 1.0 µg/mL (≈ 0.617 µM) | 0.015 µg/mL (≈ 0.00926 µM) | 1.0 µg/mL (≈ 0.617 µM)
9 | C=C(NC(=O)c1csc(-c2nc3c(cc2OP(=O)(OCc2ccccc2)OCc2ccccc2)-c2nc(cs2)C(=O)NC(C(C)O)C(=O)NC(=C(C)OC)c2nc(cs2)C(=O)NC2c4nc(cs4)C(=O)NC(COC(=O)c4c5c6c(cccc6n4O)COC(=O)C(OC4CC(C)(O)C(N(C)C)C(C)O4)C2OC5)c2nc-3cs2)n1)C(N)=O (stereo not drawn) [Example 34] | 1.0 µg/mL (≈ 0.589 µM) | 0.125 µg/mL (≈ 0.0736 µM) | 0.25 µg/mL (≈ 0.147 µM)
10 | C=C(NC(=O)c1csc(-c2nc3c(cc2OP(=O)(O)OCCCl)-c2nc(cs2)C(=O)NC(C(C)O)C(=O)NC(=C(C)OC)c2nc(cs2)C(=O)NC2c4nc(cs4)C(=O)NC(COC(=O)c4c5c6c(cccc6n4O)COC(=O)C(OC4CC(C)(O)C(N(C)C)C(C)O4)C2OC5)c2nc-3cs2)n1)C(N)=O (stereo not drawn) [Example 35] | 1.0 µg/mL (≈ 0.633 µM) | 0.03 µg/mL (≈ 0.019 µM) | 1.0 µg/mL (≈ 0.633 µM)
11 | C=C(NC(=O)c1csc(-c2nc3c(cc2O)-c2nc(cs2)C(=O)NC(C(C)O)C(=O)NC(=C(C)OC)c2nc(cs2)C(=O)NC2c4nc(cs4)C(=O)NC(COC(=O)c4c5c6c(cccc6n4OCC(=O)OC)COC(=O)C(OC4CC(C)(O)C(N(C)C)C(C)O4)C2OC5)c2nc-3cs2)n1)C(N)=O (stereo not drawn) [Example 37] | 0.06 µg/mL (≈ 0.0397 µM) | 0.001 µg/mL (≈ 0.000662 µM) | 0.03 µg/mL (≈ 0.0199 µM)
12 | C=C(NC(=O)c1csc(-c2nc3c(cc2O)-c2nc(cs2)C(=O)NC(C(C)O)C(=O)NC(=C(C)OC)c2nc(cs2)C(=O)NC2c4nc(cs4)C(=O)NC(COC(=O)c4c5c6c(cccc6n4OCC4OC6OC(C)(C)OC6C6OC(C)(C)OC46)COC(=O)C(OC4CC(C)(O)C(N(C)C)C(C)O4)C2OC5)c2nc-3cs2)n1)C(N)=O (stereo not drawn) [Example 38] | 0.03 µg/mL (≈ 0.0179 µM) | 0.001 µg/mL (≈ 0.000595 µM) | 0.125 µg/mL (≈ 0.0744 µM)
13 | C=C(NC(=O)c1csc(-c2nc3c(cc2O)-c2nc(cs2)C(=O)NC(C(C)O)C(=O)NC(=C(C)OC)c2nc(cs2)C(=O)NC2c4nc(cs4)C(=O)NC(COC(=O)c4c5c6c(cccc6n4OCOP(=O)(OC(C)(C)C)OC(C)(C)C)COC(=O)C(OC4CC(C)(O)C(N(C)C)C(C)O4)C2OC5)c2nc-3cs2)n1)C(N)=O (stereo not drawn) [Example 40] | 0.25 µg/mL (≈ 0.151 µM) | 0.015 µg/mL (≈ 0.00904 µM) | 0.125 µg/mL (≈ 0.0753 µM)
14 | C=C(NC(=O)c1csc(-c2nc3c(cc2O)-c2nc(cs2)C(=O)NC(C(C)O)C(=O)NC(=C(C)OC)c2nc(cs2)C(=O)NC2c4nc(cs4)C(=O)NC(COC(=O)c4c5c6c(cccc6n4OCOP(=O)(OCC)OCC)COC(=O)C(OC4CC(C)(O)C(N(C)C)C(C)O4)C2OC5)c2nc-3cs2)n1)C(N)=O (stereo not drawn) [Example 41] | 0.03 µg/mL (≈ 0.0187 µM) | 0.001 µg/mL (≈ 0.000624 µM) | 0.015 µg/mL (≈ 0.00935 µM)
15 | C=C(NC(=O)c1csc(-c2nc3c(cc2O)-c2nc(cs2)C(=O)NC(C(C)O)C(=O)NC(=C(C)OC)c2nc(cs2)C(=O)NC2c4nc(cs4)C(=O)NC(COC(=O)c4c5c6c(cccc6n4OCCn4ccnc4)COC(=O)C(OC4CC(C)(O)C(N(C)C)C(C)O4)C2OC5)c2nc-3cs2)n1)C(N)=O (stereo not drawn) [Example 46] | 1.0 µg/mL (≈ 0.653 µM) | 0.015 µg/mL (≈ 0.00979 µM) | 0.5 µg/mL (≈ 0.326 µM)
16 | C=C(NC(=O)c1csc(-c2nc3c(cc2O)-c2nc(cs2)C(=O)NC(C(C)O)C(=O)NC(=C(C)OC)c2nc(cs2)C(=O)NC2c4nc(cs4)C(=O)NC(COC(=O)c4c5c6c(cccc6n4OCCCNS(=O)(=O)c4cn(C)cn4)COC(=O)C(OC4CC(C)(O)C(N(C)C)C(C)O4)C2OC5)c2nc-3cs2)n1)C(N)=O (stereo not drawn) [Example 47] | 0.25 µg/mL (≈ 0.153 µM) | 0.015 µg/mL (≈ 0.00915 µM) | 0.06 µg/mL (≈ 0.0366 µM)
17 | C=C(NC(=O)c1csc(-c2nc3c(cc2O)-c2nc(cs2)C(=O)NC(C(C)O)C(=O)NC(=C(C)OC)c2nc(cs2)C(=O)NC2c4nc(cs4)C(=O)NC(COC(=O)c4c5c6c(cccc6n4OCCCN4CCN(C)CC4)COC(=O)C(OC4CC(C)(O)C(N(C)C)C(C)O4)C2OC5)c2nc-3cs2)n1)C(N)=O (stereo not drawn) [Example 50] | 1.0 µg/mL (≈ 0.634 µM) | 0.03 µg/mL (≈ 0.019 µM) | 1.0 µg/mL (≈ 0.634 µM)
18 | COC(C)=C1NC(=O)C(C(C)O)NC(=O)c2csc(n2)-c2cc(O)c(-c3nc(C(N)=O)cs3)nc2-c2csc(n2)C2COC(=O)c3c4c5c(cccc5n3OCCCS(=O)(=O)O)COC(=O)C(OC3CC(C)(O)C(N(C)C)C(C)O3)C(OC4)C(NC(=O)c3csc1n3)c1nc(cs1)C(=O)N2 (stereo not drawn) [Example 53] | 1.0 µg/mL (≈ 0.671 µM) | 0.125 µg/mL (≈ 0.0839 µM) | 0.25 µg/mL (≈ 0.168 µM)
19 | C=C(NC(=O)c1csc(-c2nc3c(cc2O)-c2nc(cs2)C(=O)NC(C(C)O)C(=O)NC(=C(C)OC)c2nc(cs2)C(=O)NC2c4nc(cs4)C(=O)NC(COC(=O)c4c5c6c(cccc6n4OCCCOC4OC(CO)C(O)C(O)C4O)COC(=O)C(OC4CC(C)(O)C(N(C)C)C(C)O4)C2OC5)c2nc-3cs2)n1)C(N)=O (stereo not drawn) [Example 58] | >128 µg/mL | 0.06 µg/mL (≈ 0.0362 µM) | 16 µg/mL (≈ 9.65 µM)
20 | COC(C)=C1NC(=O)C(C(C)O)NC(=O)c2csc(n2)-c2cc(O)c(-c3nc(C(N)=O)cs3)nc2-c2csc(n2)C2COC(=O)c3c4c5c(cccc5n3OCCCCS(=O)(=O)O)COC(=O)C(OC3CC(C)(O)C(N(C)C)C(C)O3)C(OC4)C(NC(=O)c3csc1n3)c1nc(cs1)C(=O)N2 (stereo not drawn) [Example 59] | >128 µg/mL | 0.5 µg/mL (≈ 0.332 µM) | 16 µg/mL (≈ 10.6 µM)
21 | C=C(NC(=O)c1csc(-c2nc3c(cc2O)-c2nc(cs2)C(=O)NC(C(C)O)C(=O)NC(=C(C)OC)c2nc(cs2)C(=O)NC2c4nc(cs4)C(=O)NC(COC(=O)c4c5c6c(cccc6n4OC(=O)NC)COC(=O)C(OC4CC(C)(O)C(N(C)C)C(C)O4)C2OC5)c2nc-3cs2)n1)C(N)=O (stereo not drawn) [Example 60] | 0.06 µg/mL (≈ 0.0401 µM) | 0.001 µg/mL (≈ 0.000669 µM) | 0.125 µg/mL (≈ 0.0836 µM)
